Test results taken from PubChem BioAssay AID1259407 (Chemical Carcinogenesis Research Information System (CCRIS), 2018).
Calls of active or inactive are those of the source. How the calls were made is not given here.

Tested on: CCRIS mutagenicity, Ames/micronucleus/aberration tests
Experiment: CCRIS mutagenicity studies
Settings: Test System: AMES SALMONELLA TYPHIMURIUM
[1] = Strain/Indicator: TA98, Metabolic Activation: NONE, Method: PREINCUBATION
[2] = Strain/Indicator: TA100, Metabolic Activation: NONE, Method: PREINCUBATION
[3] = Strain/Indicator: TA1535, Metabolic Activation: NONE, Method: PREINCUBATION
[4] = Strain/Indicator: TA1537, Metabolic Activation: NONE, Method: PREINCUBATION
[5] = Strain/Indicator: TA98, Metabolic Activation: NONE, Method: STANDARD PLATE
[6] = Strain/Indicator: TA98, Metabolic Activation: RAT, LIVER, S-9, AROCLOR 1254, Method: STANDARD PLATE
[7] = Strain/Indicator: TA100, Metabolic Activation: NONE, Method: STANDARD PLATE
[8] = Strain/Indicator: TA100, Metabolic Activation: RAT, LIVER, S-9, AROCLOR 1254, Method: STANDARD PLATE

Measured: mutagenic call

NCCCNCCCN
inactive: Strain/Indicator: TA98, Metabolic Activation: HAMSTER, LIVER, S-9, AROCLOR 1254 (10%), Method: PREINCUBATION inactive; negative | [1] inactive; negative | Strain/Indicator: TA98, Metabolic Activation: RAT, LIVER, S-9, AROCLOR 1254 (10%), Method: PREINCUBATION inactive; negative | Strain/Indicator: TA98, Metabolic Activation: RAT, LIVER, S-9, PCB, Method: PREINCUBATION inactive; negative | Strain/Indicator: TA100, Metabolic Activation: HAMSTER, LIVER, S-9, AROCLOR 1254 (10%), Method: PREINCUBATION inactive; negative | [2] inactive; negative | Strain/Indicator: TA100, Metabolic Activation: RAT, LIVER, S-9, AROCLOR 1254 (10%), Method: PREINCUBATION inactive; negative | Strain/Indicator: TA100, Metabolic Activation: RAT, LIVER, S-9, PCB, Method: PREINCUBATION inactive; negative | Strain/Indicator: TA1535, Metabolic Activation: HAMSTER, LIVER, S-9, AROCLOR 1254 (10%), Method: PREINCUBATION inactive; negative | [3] inactive; negative | Strain/Indicator: TA1535, Metabolic Activation: RAT, LIVER, S-9, AROCLOR 1254 (10%), Method: PREINCUBATION inactive; negative | Strain/Indicator: TA1537, Metabolic Activation: HAMSTER, LIVER, S-9, AROCLOR 1254 (10%), Method: PREINCUBATION inactive; negative | [4] inactive; negative | Strain/Indicator: TA1537, Metabolic Activation: RAT, LIVER, S-9, AROCLOR 1254 (10%), Method: PREINCUBATION inactive; negative

O=C(O)/C=C/c1ccc([N+](=O)[O-])cc1
active: Strain/Indicator: TA98(1,8-DNP6), Metabolic Activation: NONE, Method: PREINCUBATION active; positive | Strain/Indicator: TA98(1,8-DNP6), Metabolic Activation: RAT, LIVER, S-9, AROCLOR 1254, Method: PREINCUBATION active; positive | Strain/Indicator: TA98(NR), Metabolic Activation: NONE, Method: PREINCUBATION active; positive | Strain/Indicator: TA98(NR), Metabolic Activation: RAT, LIVER, S-9, AROCLOR 1254, Method: PREINCUBATION active; positive | [1] active; positive | [5] active; positive | Strain/Indicator: TA98, Metabolic Activation: RAT, LIVER, S-9, AROCLOR 1254, Method: PREINCUBATION active; positive | [6] active; positive | Strain/Indicator: TA100(1,8-DNP6), Metabolic Activation: NONE, Method: PREINCUBATION active; positive | Strain/Indicator: TA100(1,8-DNP6), Metabolic Activation: RAT, LIVER, S-9, AROCLOR 1254, Method: PREINCUBATION active; positive | Strain/Indicator: TA100(NR), Metabolic Activation: NONE, Method: PREINCUBATION active; positive | Strain/Indicator: TA100(NR), Metabolic Activation: RAT, LIVER, S-9, AROCLOR 1254, Method: PREINCUBATION active; positive | [2] active; positive | [7] active; positive | Strain/Indicator: TA100, Metabolic Activation: RAT, LIVER, S-9, AROCLOR 1254, Method: PREINCUBATION active; positive | [8] active; positive | [3] active; positive | [4] active; positive | Strain/Indicator: TA1538, Metabolic Activation: NONE, Method: PREINCUBATION active; positive

CC1OC1C (stereo unspecified)
active: Strain/Indicator: TA1535, Metabolic Activation: HAMSTER, LIVER, S-9, AROCLOR 1254 (30%), Method: PREINCUBATION active; positive | Strain/Indicator: TA1535, Metabolic Activation: RAT, LIVER, S-9, AROCLOR 1254 (30%), Method: PREINCUBATION active; positive
inactive: Strain/Indicator: TA97, Metabolic Activation: HAMSTER, LIVER, S-9, AROCLOR 1254 (30%), Method: PREINCUBATION inactive; negative | Strain/Indicator: TA97, Metabolic Activation: NONE, Method: PREINCUBATION inactive; negative | Strain/Indicator: TA97, Metabolic Activation: RAT, LIVER, S-9, AROCLOR 1254 (30%), Method: PREINCUBATION inactive; negative | Strain/Indicator: TA98, Metabolic Activation: HAMSTER, LIVER, S-9, AROCLOR 1254 (30%), Method: PREINCUBATION inactive; negative | [1] inactive; negative | Strain/Indicator: TA98, Metabolic Activation: RAT, LIVER, S-9, AROCLOR 1254 (30%), Method: PREINCUBATION inactive; negative | Strain/Indicator: TA100, Metabolic Activation: HAMSTER, LIVER, S-9, AROCLOR 1254 (30%), Method: PREINCUBATION inactive; negative | [2] inactive; negative | Strain/Indicator: TA100, Metabolic Activation: RAT, LIVER, S-9, AROCLOR 1254 (30%), Method: PREINCUBATION inactive; negative | Strain/Indicator: TA1537, Metabolic Activation: HAMSTER, LIVER, S-9, AROCLOR 1254 (30%), Method: PREINCUBATION inactive; negative | [4] inactive; negative | Strain/Indicator: TA1537, Metabolic Activation: RAT, LIVER, S-9, AROCLOR 1254 (30%), Method: PREINCUBATION inactive; negative

O=C(O)c1ccc(Cl)c([N+](=O)[O-])c1
active: [1] active; positive | [2] active; positive | Strain/Indicator: TA100, Metabolic Activation: RAT, LIVER, S-9, KANECHLOR 500, Method: PREINCUBATION active; positive
inactive: Strain/Indicator: TA98, Metabolic Activation: RAT, LIVER, S-9, KANECHLOR 500, Method: PREINCUBATION inactive; negative

O=C(n1ccnc1)n1ccnc1
inactive: [5] inactive; negative | [6] inactive; negative | [7] inactive; negative | [8] inactive; negative | Strain/Indicator: TA1535, Metabolic Activation: NONE, Method: STANDARD PLATE inactive; negative | Strain/Indicator: TA1535, Metabolic Activation: RAT, LIVER, S-9, AROCLOR 1254, Method: STANDARD PLATE inactive; negative | Strain/Indicator: TA1537, Metabolic Activation: NONE, Method: STANDARD PLATE inactive; negative | Strain/Indicator: TA1537, Metabolic Activation: RAT, LIVER, S-9, AROCLOR 1254, Method: STANDARD PLATE inactive; negative

Clc1cccc2cccnc12
active: Strain/Indicator: TA100, Metabolic Activation: RAT, LIVER, S-9, PHENOBARBITAL AND 5,6-BENZOFLAVONE, Method: PREINCUBATION active; positive
inactive: Strain/Indicator: TA100, Metabolic Activation: S-9, Method: PREINCUBATION inactive; negative
